Laboratory results taken from patent publication US6737511B1 (priority 1999, dated 2004).

Assays:
HeLa cells = assay type: cell-based, human; conditions: chloroquine 10 μM
J774 cells = assay type: cell-based
Cos-7 cells = assay type: cell-based, monkey

## CCN(CC)CCCC(C)Nc1ccnc2cc(Cl)ccc12 (stereo not shown) [Chloroquine]
HeLa cells
  effect on Bcl-xL-DTR inhibition of poliovirus-induced cell death: did not block the activity of Bcl-xL-DTR to inhibit poliovirus-induced cell death

## CN[C@@H]1C[C@H]2O[C@@](C)([C@@H]1OC)n1c3ccccc3c3c4c(c5c6ccccc6n2c5c31)C(=O)NC4 [STS, staurosporine]
J774 cells
  apoptosis induced in J774 cells: died by apoptosis over the following 36 hours
Cos-7 cells
  Cell death (%): 24%

## brefeldin A
Cos-7 cells
  effect on anti-apoptosis activity of Bcl-xL-DTR: does block the anti-apoptosis activity of Bcl-xL-DTR
